Source: PubChem BioAssay AID2250 (Sanford-Burnham Center for Chemical Genomics, 2010)
The source made the active and inactive calls. How the calls were made is not given here.

Test system: MCF-7/NOD1 cells, GM-Tri-DAP induced IL-8 secretion
Assay: inhibition of NOD1-driven IL-8 release, SAR follow-up, MCF-7/NOD1 cells, GM-Tri-DAP stimulus (AID 2250)

| IC50 | SMILES |
| --- | --- |
| > 25 µM (inactive) | O=C(O)c1c(NC(=O)N2CCOCC2)sc2c1CCCC2 |
| > 5 µM (inactive) | Cc1ccc(S(=O)(=O)n2c(N)nc3cc(C)c(C)cc32)cc1 |
